{"source": "patent US20040019043A1", "about": "“Thiomolybdate analogues and uses thereof” (priority 2002, published 2004)", "key": {"[1]": {"experiment": "Chemical Stability Data for Analogs"}, "[2]": {"experiment": "Animal weight and hematocrit in 3LL tumor-bearing mice", "procedure": "(§1) Animals are followed by weighing, palpation and measurement of tumor size. […] A positive control compound, for example cyclophosphamide at 170 mg/kg/injection is given every 6 days. Results computed include mean animal weight, tumor size, tumor weight and survival time. For confirmed therapeutic activity, the test composition should be tested in two multi-dose assays. Female C57/BL mice were inoculated with 1×10^6 Lewis Lung carcinoma (3LL) cells subcutaneously in the middle of the back. […] Cyclophosphamide (170 mg/kg given every 6 days subcutaneously beginning on day 3 after tumor cell inoculation) was used as a control. Tumor volumes and animal weights were measured 2×/week and the animals euthanized when the volume of the tumors in the control group reached an average of 2000 mm^3. The ratio (T/C) of the tumor volumes in the treated group (T) to the control group (C) were determined. Terminal cardiac bleeds were obtained and analyzed for red blood cell concentration (hematocrit, HCT)."}, "[3]": {"system": "Lewis Lung carcinoma (3LL) cells", "experiment": "In Vivo 3LL Lewis Lung Carcinoma: Primary Tumor Growth", "details": "3LL s.c. in female C57/BL mice; TM and CHTM 50 mg/kg po by gavage from day after inoculation; cyclophosphamide 170 mg/kg s.c. every 6 days from day 3", "procedure": "The tumor model used was 3LL JF in C57BL/6 mice. […] The test compound is administered daily for 11-25 days.\nas §1"}, "[4]": {"details": "After 10 days, Oven to room conditions"}}, "note": "Marks after values point to notes of the source that are not given here.", "data": [{"compound": "C[N+]1(C)CCCC1.C[N+]1(C)CCCC1.[S]=[Mo](=[S])([S-])[S-]", "note": "[1,1-dimethylpyrrolidinium, Tetrathiomolybdate, bis(1,1-dimethylpyrrolidinium)]", "values": [{"measurement": "% remaining", "setting": "[1]; [4]", "value": 70, "unit": "%"}]}, {"compound": "Cc1cc[n+](C)cc1", "note": "[1,4-dimethylpyridinium, Tetrathiomolybdate, bis(1,4-dimethylpyridinium)]", "values": [{"measurement": "% remaining", "setting": "[1]; [4]", "value": 32, "unit": "%"}]}, {"compound": "CCn1cc[n+](C)c1.CCn1cc[n+](C)c1.[S]=[Mo](=[S])([S-])[S-]", "note": "[1-ethyl-3-methyl-1H-imidazolium, Tetrathiomolybdate, bis(1-ethyl-3-methyl-1H-imidazolium)]", "values": [{"measurement": "% remaining", "setting": "[1]; [4]", "value": 75, "unit": "%"}]}, {"compound": "[NH4+].[NH4+].[SH-].[SH-].[S]=[Mo]=[S]", "note": "[Ammonium, ammonium tetrathiomolybdate]", "values": [{"measurement": "HCT (hematocrit, red blood cell concentration)", "setting": "[2]; mouse, in vivo", "value": 35, "unit": "%"}, {"measurement": "MOUSE WEIGHT % of initial", "setting": "[2]; mouse, in vivo", "value": 93, "unit": "%*"}, {"measurement": "T/C (ratio of tumor volumes in treated group to control group)", "setting": "[3]", "value": 0.59}, {"measurement": "% remaining", "setting": "[1]; *9 days, different study, Oven to room conditions", "value": "*48%"}]}, {"compound": "C[N+](C)(C)CCO", "note": "[Choline, Tetrathiomolybdate, bis(choline)]", "values": [{"measurement": "HCT (hematocrit, red blood cell concentration)", "setting": "[2]; mouse, in vivo", "value": 35, "unit": "%"}, {"measurement": "MOUSE WEIGHT % of initial", "setting": "[2]; mouse, in vivo", "value": 103, "unit": "%"}, {"measurement": "% remaining", "setting": "[1]; [4]", "value": 62, "unit": "%"}]}, {"compound": "O=P1(N(CCCl)CCCl)NCCCO1", "note": "(stereo not shown) [Cyclophosphamide]", "values": [{"measurement": "MOUSE WEIGHT % of initial", "setting": "[2]; 3LL tumor-bearing female C57/BL mice, same dosing as T/C", "value": 105, "unit": "%"}, {"measurement": "HCT (hematocrit, red blood cell concentration)", "setting": "[2]; terminal cardiac bleeds, normal is 45%", "value": 40, "unit": "%"}, {"measurement": "T/C (ratio of tumor volumes in treated group to control group)", "setting": "[3]", "value": 0.74}]}, {"compound": "CC[N+](C)(CC)CC.CC[N+](C)(CC)CC.[S]=[Mo](=[S])([S-])[S-]", "note": "[Methyltriethylammonium, Tetrathiomolybdate, bis(triethylmethyl ammonium)]", "values": [{"measurement": "% remaining", "setting": "[1]; [4]", "value": 63, "unit": "%"}]}, {"compound": "CC[N+](CC)(CC)c1ccccc1.CC[N+](CC)(CC)c1ccccc1.[S]=[Mo](=[S])([S-])[S-]", "note": "[Triethylphenylammonium, Tetrathiomolybdate, bis(triethylphenyl ammonium)]", "values": [{"measurement": "% remaining", "setting": "[1]; [4]", "value": 76, "unit": "%"}]}, {"compound": "C[N+](C)(C)Cc1ccccc1.C[N+](C)(C)Cc1ccccc1.[S]=[Mo](=[S])([S-])[S-]", "note": "[Trimethylbenzylammonium, Tetrathiomolybdate, bis(benzyltrimethylammonium)]", "values": [{"measurement": "% remaining", "setting": "[1]; [4]", "value": 94, "unit": "%"}]}, {"compound": "C[N+](C)(C)c1ccccc1.C[N+](C)(C)c1ccccc1.[S]=[Mo](=[S])([S-])[S-]", "note": "[Trimethylphenylammonium, Tetrathiomolybdate, bis(phenyltrimethylammonium)]", "values": [{"measurement": "% remaining", "setting": "[1]; 7 days, 74-77% RH, RT", "value": 98, "unit": "%"}, {"measurement": "% remaining", "setting": "[1]; [4]", "value": 85, "unit": "%"}]}, {"compound": "C[N+](C)(Cc1ccccc1)c1ccccc1.C[N+](C)(Cc1ccccc1)c1ccccc1.[S]=[Mo](=[S])([S-])[S-]", "note": "[bis(benzylphenyldimethylammonium), Tetrathiomolybdate, bis(benzylphenyldimethylammonium)]", "values": [{"measurement": "% remaining", "setting": "[1]; 7 days, 74-77% RH, RT", "value": 45, "unit": "%"}]}, {"compound": "C[N+](C)(C)CC1CC1.C[N+](C)(C)CC1CC1.[S]=[Mo](=[S])([S-])[S-]", "note": "[bis(cyclopropylmethyltrimethylammonium), Tetrathiomolybdate, bis(cyclopropylmethyltrimethyl ammonium)]", "values": [{"measurement": "% remaining", "setting": "[1]; 7 days, 74-77% RH, RT", "value": 86, "unit": "%"}]}, {"compound": "C=C[N+](C)(C)C.C=C[N+](C)(C)C.[S]=[Mo](=[S])([S-])[S-]", "note": "[bis(vinyltrimenthyammonium), Tetrathiomolybdate, bis(vinyltrimethyl ammonium)]", "values": [{"measurement": "% remaining", "setting": "[1]; 7 days, 74-77% RH, RT", "value": 72, "unit": "%"}]}, {"compound": "C[N+](C)(C)CCCC[N+](C)(C)C", "note": "[butane-1,4-bis(trimethylammonium)]", "values": [{"measurement": "% remaining", "setting": "[1]; [4]", "value": 40, "unit": "%"}]}, {"compound": "C[N+](C)(C)CCCCCC[N+](C)(C)C.[S]=[Mo](=[S])([S-])[S-]", "note": "[hexane-1,6-bis(trimethylammonium), Tetrathiomolybdate, hexane-1,6-bis(trimethylammonium)]", "values": [{"measurement": "% remaining", "setting": "[1]; 7 days, 74-77% RH, RT", "value": 94, "unit": "%"}]}, {"compound": "C[N+](C)(C)CCCCC[N+](C)(C)C", "note": "[pentane-1,5-bis(trimethylammonium), Tetrathiomolybdate, pentane-1,5-bis(trimethylammonium)]", "values": [{"measurement": "% remaining", "setting": "[1]; [4]", "value": 86, "unit": "%"}]}, {"compound": "Ethylenebis(trimethylammonium)", "values": [{"measurement": "% remaining", "setting": "[1]; [4]", "value": 40, "unit": "%"}]}]}
